Results published in US11492589B2, “Lactobacillus plantarum CJLP475 strain having antiviral and immunomodulatory effects and composition comprising the same” (CJ CHEILJEDANG CORPORATION, priority 2018, dated 2022).

Tested on: Lactobacillus plantarum CJLP475 strain
Assay: Antibiotic susceptibility test with antibiotic discs
Format: cell-based
Conditions: antibiotic discs on solid Mueller Hinton II medium, 37° C., 24 hours
Method: The CJLP475 strain was inoculated into a liquid MRS medium and subjected to a static culture at 37° C. for 24 hours. The thus-cultured bacteria were soaked in sterilized cotton swabs and smeared on a solid Mueller Hinton II medium (Difco), and then antibiotic discs were placed on the medium and incubated at 37° C. for 24 hours. Ampicillin, clindamycin, gentamicin, kanamycin, erythromycin, ampicillin/sulbactam, chloramphenicol, and streptomycin discs (Oxoid, UK) were used as antibiotic discs for the antibiotic test.

Compound | Radius of Growth Inhibition Area Centered Around Antibiotics [mm]
NC[C@H]1O[C@H](O[C@H]2[C@H](O)[C@@H](O[C@H]3O[C@H](CO)[C@@H](O)[C@H](N)[C@H]3O)[C@H](N)C[C@@H]2N)[C@H](O)[C@@H](O)[C@@H]1O [K30 (Kanamycin), Kanamycin] | 1.5
CC[C@H]1OC(=O)[C@H](C)[C@@H](O[C@H]2C[C@@](C)(OC)[C@@H](O)[C@H](C)O2)[C@H](C)[C@@H](O[C@@H]2O[C@H](C)C[C@H](N(C)C)[C@H]2O)[C@](C)(O)C[C@@H](C)C(=O)[C@H](C)[C@@H](O)[C@]1(C)O [E15 (Erythromycin), Erythromycin] | 9
O=C(N[C@H](CO)[C@H](O)c1ccc([N+](=O)[O-])cc1)C(Cl)Cl [S10 (Chloramphenicol), Chloramphenicol] | 3
CCC[C@@H]1C[C@@H](C(=O)N[C@@H]([C@H]2O[C@H](SC)[C@H](O)[C@@H](O)[C@H]2O)[C@H](C)Cl)N(C)C1 [C30 (Clindamycin), Clindamycin] | 8
Gentamicin [CN120 (Gentamicin)] | 9
[H]/N=C(/N)N[C@H]1[C@H](O)[C@@H](O)[C@H](O[C@@H]2O[C@@H](C)[C@](O)(C=O)[C@H]2O[C@@H]2O[C@@H](CO)[C@H](O)[C@@H](O)[C@@H]2NC)[C@@H](N/C(N)=N\[H])[C@@H]1O [DA2 (Streptomycin), Streptomycin] | 4
Ampicillin/Sulbactam [SAM20 (Ampicillin/Sulbactam)] | 8
CC1(C)S[C@@H]2[C@H](NC(=O)[C@H](N)c3ccccc3)C(=O)N2[C@H]1C(=O)O [Amp10 (Ampicillin), Ampicillin] | 7
